In ChEMBL document CHEMBL6096668, “Design and functional studies of xylene-based cyclic mimetics of SOCS1 protein” (Eur J Med Chem, 2025):
pIC50, pKd: −log10 of the molar value. Numbered stars: 1 amine (or outer) side, 2 acyl side, 3 side chain; on linkers, the order of the positions; unused ones are H or OH. Bridge positions count the residues as written; N and C are the ends. Square brackets hold non-standard residues; d marks the D form. Peptide text beside a SMILES is read from it. * marks the point of attachment. 1Nal = N[C@@H](Cc1cccc2ccccc12)C(=O)O; TBMB = c1c(C[*:1])cc(C[*:3])cc1C[*:2]; Acm = CC(=O)NC*

How the values were obtained:
[1] = target: T1, Tyrosine-protein kinase JAK2 (Homo sapiens, UniProt O60674); experiment: Binding affinity to his-tagged JAK2 (826 to 1132 residues) (unknown origin) assessed as dissociation constant incubated for 30 mins by MST analysis
[2] = target: T1, Tyrosine-protein kinase JAK2; experiment: Inhibition of JAK2 (unknown origin) using srctide as substrate preincubated with compound for 1 hr followed by substrate addition and measured after 15 mins in presence of ATP by LC-MS analysis
[3] = Stability of the compound in fetal bovine serum measured after 30 h by RP-HPLC analysis; settings: cattle

T1 sequence (O60674 whole entry, the tested form may be a part): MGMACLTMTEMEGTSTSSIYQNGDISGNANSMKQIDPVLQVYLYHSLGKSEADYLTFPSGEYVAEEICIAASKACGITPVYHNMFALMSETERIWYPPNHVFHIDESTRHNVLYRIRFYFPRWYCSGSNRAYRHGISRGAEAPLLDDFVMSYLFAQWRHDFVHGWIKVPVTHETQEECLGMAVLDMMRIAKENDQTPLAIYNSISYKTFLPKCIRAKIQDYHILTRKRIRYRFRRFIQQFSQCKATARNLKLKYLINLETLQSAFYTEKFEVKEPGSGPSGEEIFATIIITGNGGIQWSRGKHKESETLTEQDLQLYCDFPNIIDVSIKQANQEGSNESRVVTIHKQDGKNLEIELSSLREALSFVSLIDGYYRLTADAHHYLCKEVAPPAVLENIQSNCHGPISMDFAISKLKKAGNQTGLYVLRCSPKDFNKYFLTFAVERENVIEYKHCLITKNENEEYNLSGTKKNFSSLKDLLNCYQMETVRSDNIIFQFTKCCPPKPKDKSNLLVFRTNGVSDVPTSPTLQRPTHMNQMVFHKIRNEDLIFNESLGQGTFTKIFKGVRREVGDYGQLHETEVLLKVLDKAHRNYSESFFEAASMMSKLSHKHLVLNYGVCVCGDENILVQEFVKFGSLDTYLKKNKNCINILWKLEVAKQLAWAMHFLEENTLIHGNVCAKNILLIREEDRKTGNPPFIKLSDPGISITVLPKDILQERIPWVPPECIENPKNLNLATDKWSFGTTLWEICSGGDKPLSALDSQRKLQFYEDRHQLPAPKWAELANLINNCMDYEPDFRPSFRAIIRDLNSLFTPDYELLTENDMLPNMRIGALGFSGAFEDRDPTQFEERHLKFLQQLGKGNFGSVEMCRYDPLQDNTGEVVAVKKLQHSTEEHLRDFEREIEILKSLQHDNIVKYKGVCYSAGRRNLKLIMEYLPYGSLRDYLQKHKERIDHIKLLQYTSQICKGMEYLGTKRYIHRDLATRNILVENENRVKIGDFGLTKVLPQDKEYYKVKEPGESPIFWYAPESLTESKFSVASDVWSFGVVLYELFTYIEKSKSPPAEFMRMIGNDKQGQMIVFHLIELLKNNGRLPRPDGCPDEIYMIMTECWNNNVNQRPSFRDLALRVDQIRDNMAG

| pKd [1] | pIC50 [2] | Stability [3] | Structure (SMILES) |
| --- | --- | --- | --- |
| ~4.05 | – | – | COc1cc(/C=C/C(=O)CC(=O)/C=C/c2ccc(O)c(OC)c2)ccc1O [CURCUMIN] |
| 3.89 | 4.00 | – | CC(=O)NCSC[C@@H]1NC(=O)[C@H]([C@@H](C)O)NC(=O)[C@@H](NC(C)=O)CSCc2cc3cc(c2)CSC[C@H](NC(=O)[C@H](CCCNC(=N)N)NC1=O)C(=O)N[C@@H]([C@@H](C)O)C(=O)N[C@@H](Cc1cccc2ccccc12)C(=O)N[C@@H](CCCNC(=N)N)C(=O)N[C@H](C(=O)N[C@@H](Cc1cnc[nH]1)C(N)=O)CSC3 (Ac-CTC(Acm)RCT[1Nal]RCH-NH2; linker 1-5-9 via TBMB) |
| – | – | Stable | CC(=O)NCSC[C@@H]1NC(=O)[C@H]([C@@H](C)O)NC(=O)[C@@H](NC(C)=O)CC(=O)NCCCC[C@@H](C(=O)N[C@@H](Cc2cnc[nH]2)C(N)=O)NC(=O)[C@H](CCCNC(=N)N)NC(=O)[C@H](Cc2cccc3ccccc23)NC(=O)[C@H]([C@@H](C)O)NC(=O)[C@H](CCC(N)=O)NC(=O)[C@H](CCCNC(=N)N)NC1=O (Ac-DTC(Acm)RQT[1Nal]RKH-NH2; lactam 1-9) |
| 5.17 | 5.66 | – | CC(=O)NCSC[C@@H]1NC(=O)[C@H]([C@@H](C)O)NC(=O)[C@H](NC(C)=O)CSCc2cccc(c2)CSC[C@@H](C(=O)N[C@@H](Cc2cnc[nH]2)C(N)=O)NC(=O)[C@H](CCCNC(=N)N)NC(=O)[C@H](Cc2cccc3ccccc23)NC(=O)[C@H]([C@@H](C)O)NC(=O)[C@H](CCC(N)=O)NC(=O)[C@H](CCCNC(=N)N)NC1=O |
